The values below come from ChEMBL document CHEMBL3390839, “Triazolopyrimidinones as -secretase modulators: structureactivity relationship, modulator profile, and in vivo profiling” (Medchemcomm, 2013).

SMILES strings stand for the structures. Values after ≈ are worked out from the molar mass of the structure shown. Active and inactive are the calls of the source.

One data set concerns the target Gamma-secretase. As to the kind of experiment: Inhibition of human gamma-secretase in HEK-APPswe cells assessed as amyloid beta42 production by electrochemiluminescence assay. It is filed as cell-based.
Data set [1] in a line: Inhibition of gamma-secretase in mouse primary cortical neurons cells assessed as amyloid beta42 production after 5 days by ELISA. It is filed as cell-based, Cerebral cortex neuron. The conditions noted are these: cerebral cortex neuron. On the technique in general: An ELISA detects its analyte on a solid surface through an enzyme-linked reagent.
The target in data set [2] is Voltage-gated inwardly rectifying potassium channel KCNH2 (Homo sapiens, UniProt Q12809). Put plainly: Inhibition of human ERG.
Data set [3] in a line: Solubility of the compound. It is filed as physicochemical.
In another data set the test system is Liver microsome. As to the kind of experiment: Intrinsic clearance in human liver microsomes measured pre ug of protein. It is filed as ADME. In general terms: Microsomes from liver hold many membrane-bound enzymes, among them those of drug oxidation.
Data set [4] in a line: Permeability across apical to basolateral side in human Caco2 cells. It is filed as ADME, cell-based. The note with it: Caco-2, read-out: permeability. For orientation: Caco-2 monolayers are a common model of the intestinal barrier.
Data set [5] can be described thus: Permeability across basolateral to apical side in human Caco2 cells. The note with it: Caco-2, read-out: permeability. It is filed as ADME, cell-based.
Data set [6] is described as follows: Ratio of drug level in brain to plasma in C57BL/6 mouse. The note with it: brain and plasma, read-out: BPR. It is filed as ADME, organism-based.
Data set [7] deals with Mus musculus. As to the kind of experiment: Dose normalized AUC in C57BL/6 mouse at 3 umol/kg, iv. The conditions noted are these: in vivo. It is filed as ADME, organism-based.
Data set [8] in a line: Volume of distribution at steady state in C57BL/6 mouse at 3 umol/kg, iv. It is filed as ADME, organism-based. The conditions noted are these: in vivo, read-out: Vdss.
The nature of data set [9]: Half life in C57BL/6 mouse at 3 umol/kg, iv. The conditions noted are these: in vivo. It is filed as ADME, organism-based.
Data set [10] can be described thus: Clearance in C57BL/6 mouse at 3 umol/kg, iv. It is filed as ADME, organism-based. The conditions noted are these: in vivo.
Data set [11] concerns Mus musculus. As to the kind of experiment: Dose normalized AUC in C57BL/6 mouse at 10 umol/kg, po. It is filed as ADME, organism-based. The conditions noted are these: in vivo.
Data set [12] is described as follows: Cmax in C57BL/6 mouse at 10 umol/kg, po. The note with it: in vivo. It is filed as ADME, organism-based. The arrangement: dose 10 umol/kg, route oral.
The nature of data set [13]: Tmax in C57BL/6 mouse at 10 umol/kg, po. The note with it: in vivo. It is filed as ADME, organism-based.
The nature of data set [14]: Half life in C57BL/6 mouse at 10 umol/kg, po. The conditions noted are these: in vivo. It is filed as ADME, organism-based.
A short description of data set [15]: Oral bioavailability in C57BL/6 mouse at 10 umol/kg. The conditions noted are these: in vivo. It is filed as ADME, organism-based.
In data set [16] the test system is Mus musculus. As to the kind of experiment: Reduction in amyloid beta42 production in C57BL/6 mouse brain at 150 umol/kg, po after 1.5 hrs by ELISA relative to vehicle treated control. It is filed as functional. The note with it: C57BL/6, Brain.
Data set [17] concerns Mus musculus. Put plainly: Reduction in amyloid beta42 production in C57BL/6 mouse brain at 50 umol/kg, po after 1.5 hrs by ELISA relative to vehicle treated control. It is filed as functional. The conditions noted are these: C57BL/6, Brain.
Data set [18] concerns the target T1, Gamma-secretase (Homo sapiens) (UniProt Q96BI3+Q9NZ42+Q8WW43+P49768+Q92542+P49810). Put plainly: Inhibition of human gamma-secretase in HEK-APPswe cells assessed as amyloid beta42 production at 10 nM by electrochemiluminescence assay. It is filed as cell-based.
For data set [19], the target named is T1, Gamma-secretase (Homo sapiens). As to the kind of experiment: Inhibition of human gamma-secretase in HEK-APPswe cells assessed as amyloid beta40 production at 10 nM by electrochemiluminescence assay. It is filed as cell-based.
The target is the same in data set [20]. As to the kind of experiment: Inhibition of human gamma-secretase in HEK-APPswe cells assessed as amyloid beta39 production at 10 nM by electrochemiluminescence assay. It is filed as cell-based.
Data set [21] shares this target. Put plainly: Inhibition of human gamma-secretase in HEK-APPswe cells assessed as amyloid beta38 production at 10 nM by electrochemiluminescence assay. It is filed as cell-based.
Data set [22] has the same target. As to the kind of experiment: Inhibition of human gamma-secretase in HEK-APPswe cells assessed as amyloid beta37 production at 10 nM by electrochemiluminescence assay. It is filed as cell-based.
Data set [23] shares this target. As to the kind of experiment: Inhibition of human gamma-secretase in HEK-APPswe cells assessed as notch processing at 5 uM by electrochemiluminescence assay. It is filed as cell-based.
The target is the same in data set [24]. As to the kind of experiment: Inhibition of human gamma-secretase in HEK-APPswe cells assessed as notch processing at 8 uM by electrochemiluminescence assay. It is filed as cell-based.

Sequence of Voltage-gated inwardly rectifying potassium channel KCNH2 (Q12809 whole entry): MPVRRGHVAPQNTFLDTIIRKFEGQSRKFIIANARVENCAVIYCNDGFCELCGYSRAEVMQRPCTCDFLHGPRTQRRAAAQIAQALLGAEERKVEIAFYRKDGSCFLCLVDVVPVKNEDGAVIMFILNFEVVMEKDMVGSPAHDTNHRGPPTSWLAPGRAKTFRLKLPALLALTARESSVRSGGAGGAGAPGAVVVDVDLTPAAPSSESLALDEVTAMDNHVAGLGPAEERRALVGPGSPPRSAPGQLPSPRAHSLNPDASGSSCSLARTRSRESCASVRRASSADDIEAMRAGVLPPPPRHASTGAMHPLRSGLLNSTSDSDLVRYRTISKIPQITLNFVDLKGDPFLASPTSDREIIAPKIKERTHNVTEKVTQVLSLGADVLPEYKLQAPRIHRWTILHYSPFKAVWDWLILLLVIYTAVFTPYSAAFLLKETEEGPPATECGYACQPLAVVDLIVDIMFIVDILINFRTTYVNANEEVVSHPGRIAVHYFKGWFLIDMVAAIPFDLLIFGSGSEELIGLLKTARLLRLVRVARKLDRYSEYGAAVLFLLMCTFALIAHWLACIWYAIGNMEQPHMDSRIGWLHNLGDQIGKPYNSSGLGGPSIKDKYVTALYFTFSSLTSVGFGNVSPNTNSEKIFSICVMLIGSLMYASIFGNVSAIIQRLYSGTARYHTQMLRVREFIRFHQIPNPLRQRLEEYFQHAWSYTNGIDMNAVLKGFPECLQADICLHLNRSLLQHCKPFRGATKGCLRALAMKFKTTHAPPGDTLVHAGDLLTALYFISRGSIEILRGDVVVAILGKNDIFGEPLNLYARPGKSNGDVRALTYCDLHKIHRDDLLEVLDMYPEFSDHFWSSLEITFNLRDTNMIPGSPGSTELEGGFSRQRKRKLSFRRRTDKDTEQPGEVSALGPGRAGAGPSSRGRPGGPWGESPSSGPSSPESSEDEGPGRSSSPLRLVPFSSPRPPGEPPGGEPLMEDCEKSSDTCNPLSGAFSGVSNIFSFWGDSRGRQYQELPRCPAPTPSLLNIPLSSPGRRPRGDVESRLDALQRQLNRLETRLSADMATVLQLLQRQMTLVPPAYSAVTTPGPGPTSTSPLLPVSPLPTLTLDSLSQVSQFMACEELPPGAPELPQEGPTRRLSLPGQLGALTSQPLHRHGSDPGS

Consider `COc1cc(Nc2nc3n(n2)C(C)CC(=O)N3Cc2ccccc2)ccc1-n1cnc(C)c1` (stereo in doubt; 19B) [listing 1 of 2 here], for which the pIC50 was found to be 8 at Gamma-secretase and 7.7 in data set [1]. In addition, the half-maximal inhibitory concentration (IC50) in data set [2] worked out at 3.7 µM. Moreover, the solubility in [3] stood at 6 µM (≈ 2.66 µg/mL). Further, in the data set on Liver microsome, the CLH stood at 52 µL/min. Also, the Papp A→B in data set [4] amounted to 22 ×10⁻⁶ cm/s. Moreover, the Papp B→A in [5] was found to be 13 ×10⁻⁶ cm/s. For the same compound, the Kp in [6] turned out to be 0.72. For the same compound, the AUC/dose was 0.84 kg·h/L in the data set on Mus musculus [7] and 0.27 kg·h/L in the data set on Mus musculus [11]. Moreover, in data set [8], the Vd worked out at 0.9 L/kg. In addition, the half-life in [9] is 36 min; in data set [14] it was 312 min. The compound further gave a clearance in [10] of 21 mL/min/kg. Besides, in data set [12], the Cmax is 1200 nM. Also, the Tmax in data set [13] came to 30 min. The bioavailability in [15] turned out to be 32%. Moreover, the inhibition in vivo at 150 µmol/kg in the data set on Mus musculus [16] worked out at 24%. The inhibition in vivo at 50 µmol/kg in the data set with Mus musculus [17] is 9%.
As for `COc1cc(Nc2nc3n(n2)C(C2CC2)CCN3CC(C)(C)O)ccc1-n1cnc(C)c1` (stereo in doubt; 42A) [listing 1 of 2 here], in data set [1], the pIC50 was 7.5. In data set [3], this compound had a solubility of 63 µM (≈ 27.6 µg/mL). Moreover, the CLH in the data set with Liver microsome worked out at 37 µL/min. Moreover, the AUC/dose amounted to 0.67 kg·h/L in the data set with Mus musculus [7] and 0.61 kg·h/L with Mus musculus [11]. For the same compound, in [8], the Vd came out at 1.4 L/kg. In addition, the figures for the half-life in data set [9] and in data set [14] were 54 min and 60 min, respectively. For the same compound, the clearance in data set [10] was found to be 25 mL/min/kg. The Cmax in data set [12] is 3800 nM. Moreover, in data set [13], the Tmax came to 30 min. This compound also came in with a bioavailability in data set [15] of 91%.
As to `COc1cc(Nc2nc3n(n2)C(C2CC2)CCN3CC(C)(C)O)ccc1-n1cnc(C)c1` (stereo in doubt; 42A) [listing 2 of 2 here], the inhibition result in [18], in data set [19], in [20], in data set [21] and in data set [22] was “Active” throughout. Moreover, in data set [23], the outcome was inactive.
For `COc1cc(Nc2nc3n(n2)C(C)CC(=O)N3Cc2ccccc2)ccc1-n1cnc(C)c1` (stereo in doubt; 19B) [listing 2 of 2 here], in data set [18], the inhibition result is “Active”. For the same compound, the inhibition result in data set [19], in data set [20], in data set [21] and in data set [22] was “inactive” in each case. In [24], the result was inactive.

In general, pIC50 refers to the IC50 on a negative log10 scale, so that one unit is a factor of ten. The term IC50 denotes the concentration that inhibits the measured activity by half. By solubility is commonly meant how much of the substance goes into solution per volume. The low end stands for little dissolved substance, the high end for much dissolved substance. A word on the half-life: it is the time needed for the level to fall by half in the phase considered. Broadly, the clearance is a measure of how efficiently the substance is removed, as volume per time. A higher clearance goes with a high capacity for elimination. Usually Cmax stands for the highest concentration seen after dosing. Usually Tmax stands for the time at which the peak concentration occurs. Usually bioavailability stands for the share of a dose that reaches the circulation, judged against a reference dose that is usually intravenous. Low readings indicate poor availability, high ones good availability. What is called inhibition in vivo is the percentage by which the read-out fell short of the control. Read a high inhibition in vivo as a response far below the control.
